Test results from patent US10047051B2, “Substituted pyridines and method of use” (AbbVie S.á{acute over (.)}r.l., priority 2015, dated 2018).

Assays:
CFTR ΔF508 mutant = target: T1, CFTR ΔF508 mutant (Homo sapiens, UniProt P13569, DEL508-508); assay: YFP-halide influx assay for the CFTR-ΔF508 mutation (CFBE41o- cells); format: cell-based; settings: forskolin 10.67 μM; for EC50: from (1−F/F0) vs concentration plot
T1 construct: expressed in transfected cells; host or cells: CFBE41o- cells, adenoviral transduction
T1 sequence (P13569 with tags, fused parts or gaps DEL508-508): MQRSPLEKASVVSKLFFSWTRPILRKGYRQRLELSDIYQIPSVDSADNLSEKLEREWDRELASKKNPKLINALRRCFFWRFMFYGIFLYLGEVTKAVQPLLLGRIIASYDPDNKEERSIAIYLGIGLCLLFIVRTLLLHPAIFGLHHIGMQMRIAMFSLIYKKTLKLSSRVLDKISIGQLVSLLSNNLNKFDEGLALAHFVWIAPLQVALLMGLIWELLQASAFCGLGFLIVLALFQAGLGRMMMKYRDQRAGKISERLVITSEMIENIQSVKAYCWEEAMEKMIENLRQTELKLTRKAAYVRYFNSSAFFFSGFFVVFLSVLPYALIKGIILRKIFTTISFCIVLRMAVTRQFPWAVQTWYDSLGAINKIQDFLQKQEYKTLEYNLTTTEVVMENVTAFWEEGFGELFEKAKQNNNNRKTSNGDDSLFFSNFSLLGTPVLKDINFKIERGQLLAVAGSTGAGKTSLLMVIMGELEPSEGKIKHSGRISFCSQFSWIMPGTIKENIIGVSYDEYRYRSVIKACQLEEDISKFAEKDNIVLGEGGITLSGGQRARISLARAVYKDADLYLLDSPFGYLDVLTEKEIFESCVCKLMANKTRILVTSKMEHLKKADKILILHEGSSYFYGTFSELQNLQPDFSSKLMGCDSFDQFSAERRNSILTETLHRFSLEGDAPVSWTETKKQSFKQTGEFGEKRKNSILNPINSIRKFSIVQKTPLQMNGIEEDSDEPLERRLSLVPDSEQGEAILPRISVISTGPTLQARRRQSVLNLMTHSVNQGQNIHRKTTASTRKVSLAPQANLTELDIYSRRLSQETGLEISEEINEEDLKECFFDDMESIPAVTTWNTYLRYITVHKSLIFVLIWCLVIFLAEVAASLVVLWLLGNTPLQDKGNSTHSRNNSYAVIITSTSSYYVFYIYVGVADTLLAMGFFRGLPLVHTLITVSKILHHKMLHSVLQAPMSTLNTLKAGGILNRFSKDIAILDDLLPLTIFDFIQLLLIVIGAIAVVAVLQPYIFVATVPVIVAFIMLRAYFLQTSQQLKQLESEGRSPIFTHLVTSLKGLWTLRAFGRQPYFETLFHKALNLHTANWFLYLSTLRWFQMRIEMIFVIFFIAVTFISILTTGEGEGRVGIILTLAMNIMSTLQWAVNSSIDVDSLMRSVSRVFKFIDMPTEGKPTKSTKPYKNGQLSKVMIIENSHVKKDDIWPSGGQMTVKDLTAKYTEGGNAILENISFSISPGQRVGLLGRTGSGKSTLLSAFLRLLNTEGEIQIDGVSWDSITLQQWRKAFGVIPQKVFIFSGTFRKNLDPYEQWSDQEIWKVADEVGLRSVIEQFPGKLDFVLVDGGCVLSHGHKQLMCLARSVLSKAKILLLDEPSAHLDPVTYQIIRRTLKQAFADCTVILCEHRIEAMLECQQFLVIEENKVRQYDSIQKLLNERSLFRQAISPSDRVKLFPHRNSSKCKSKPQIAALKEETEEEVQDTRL
Method in brief: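 EC50 derived from plotting 1−F/F0 (fluorescence 36 s after iodide injection over pre-injection value) against compound concentration. Cells: CFBE41o- transduced with ΔF508-CFTR and YFP quench reporter, corrected 24 h at 27° C or by a CFTR modulator at 37° C.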

CFTR G551D mutant = target: T2, CFTR G551D mutant (Homo sapiens, UniProt P13569, G551D); assay: YFP-halide influx assay for the CFTR-G551D mutation (HEK293 cells); format: cell-based; settings: forskolin 10.67 μM
T2 construct: expressed in transfected cells; host or cells: HEK293 cells, reverse transfection with plasmids
T2 sequence (P13569 whole entry G551D): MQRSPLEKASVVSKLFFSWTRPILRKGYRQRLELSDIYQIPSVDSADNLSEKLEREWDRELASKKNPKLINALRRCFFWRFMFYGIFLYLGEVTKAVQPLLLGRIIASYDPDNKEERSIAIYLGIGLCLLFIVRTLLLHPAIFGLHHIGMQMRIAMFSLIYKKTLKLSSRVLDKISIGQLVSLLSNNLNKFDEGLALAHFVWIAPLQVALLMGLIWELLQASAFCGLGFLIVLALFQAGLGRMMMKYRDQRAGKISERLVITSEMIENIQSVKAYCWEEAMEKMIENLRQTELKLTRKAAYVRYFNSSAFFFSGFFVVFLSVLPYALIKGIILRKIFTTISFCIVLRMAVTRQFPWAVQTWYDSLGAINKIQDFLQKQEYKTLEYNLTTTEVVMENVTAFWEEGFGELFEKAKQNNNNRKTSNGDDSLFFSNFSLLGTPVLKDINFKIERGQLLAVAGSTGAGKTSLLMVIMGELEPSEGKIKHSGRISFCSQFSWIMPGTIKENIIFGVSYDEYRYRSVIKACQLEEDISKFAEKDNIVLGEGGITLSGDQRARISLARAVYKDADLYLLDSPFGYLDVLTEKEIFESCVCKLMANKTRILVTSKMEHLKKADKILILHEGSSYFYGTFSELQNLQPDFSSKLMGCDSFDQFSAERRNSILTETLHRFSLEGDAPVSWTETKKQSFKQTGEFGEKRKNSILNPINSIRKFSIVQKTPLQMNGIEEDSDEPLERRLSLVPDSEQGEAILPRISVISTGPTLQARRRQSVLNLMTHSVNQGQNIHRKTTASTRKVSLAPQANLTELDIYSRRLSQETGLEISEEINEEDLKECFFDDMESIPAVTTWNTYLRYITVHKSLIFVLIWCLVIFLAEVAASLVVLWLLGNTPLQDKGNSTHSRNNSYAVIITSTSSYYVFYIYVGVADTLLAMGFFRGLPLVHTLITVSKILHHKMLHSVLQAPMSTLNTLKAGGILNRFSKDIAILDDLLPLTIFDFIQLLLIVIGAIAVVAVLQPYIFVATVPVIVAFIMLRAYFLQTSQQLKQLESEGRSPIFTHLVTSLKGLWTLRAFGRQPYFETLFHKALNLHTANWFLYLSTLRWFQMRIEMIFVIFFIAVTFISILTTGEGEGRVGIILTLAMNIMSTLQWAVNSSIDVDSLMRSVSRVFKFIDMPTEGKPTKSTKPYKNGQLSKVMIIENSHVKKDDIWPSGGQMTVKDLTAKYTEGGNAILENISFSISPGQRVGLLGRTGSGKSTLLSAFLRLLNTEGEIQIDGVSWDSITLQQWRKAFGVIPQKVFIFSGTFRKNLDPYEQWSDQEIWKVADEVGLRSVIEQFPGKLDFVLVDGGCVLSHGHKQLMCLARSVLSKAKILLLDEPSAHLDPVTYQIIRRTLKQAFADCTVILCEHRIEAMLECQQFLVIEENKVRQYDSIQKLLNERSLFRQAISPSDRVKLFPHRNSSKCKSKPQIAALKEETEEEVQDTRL
Method in brief: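 Channel opening read as I⁻-driven quenching of a YFP H148Q/I152L/F47L reporter over 7 s post-injection, expressed as 1−F/F0 and fitted against concentration for EC50. Cells were HEK293 co-transfected at seeding with G551D CFTR plus reporter, then grown 24 h at 37 °C, 5% CO2.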

% Activation (CFTR ΔF508 mutant)	EC50 (CFTR ΔF508 mutant)	% Activation (CFTR G551D mutant)	EC50 (CFTR G551D mutant)	SMILES
94.0%	238 nM	63.5%	1390 nM	CC1CCOCC1CNC(=O)c1ncc(S(=O)(=O)c2ccc(OC(F)(F)F)cc2)cc1N (stereo not shown) [Compound 156, 3-amino-N-[(4-methyltetrahydro-2H-pyran-3-yl)methyl]-5-{[4-(trifluoromethoxy)phenyl]sulfonyl}pyridine-2-carboxamide]
101.2%	33.7 nM	28.8%	> 10000 nM	Nc1cc(S(=O)(=O)c2ccc(C(F)(F)F)cc2)cnc1C(=O)N1CC(C(F)(F)F)C1 [Compound 157, (3-amino-5-{[4-(trifluoromethyl)phenyl]sulfonyl}pyridin-2-yl)[3-(trifluoromethyl)azetidin-1-yl]methanone]
114.3%	31.6 nM	29.2%	> 10000 nM	Nc1cc(S(=O)(=O)c2ccc(C(F)(F)F)cc2)cnc1C(=O)N1CC(OC(F)F)C1 [Compound 158, (3-amino-5-{[4-(trifluoromethyl)phenyl]sulfonyl}pyridin-2-yl)[3-(difluoromethoxy)azetidin-1-yl]methanone]
111.1%	4.4 nM	46.6%	238 nM	CC(C)C1(O)CN(C(=O)c2ncc(S(=O)(=O)c3ccc(C(F)(F)F)cc3)cc2N)C1 [Compound 159, (3-amino-5-{[4-(trifluoromethyl)phenyl]sulfonyl}pyridin-2-yl)[3-hydroxy-3-(propan-2-yl)azetidin-1-yl]methanone]
113.9%	23.6 nM	52.7%	566 nM	Nc1cc(S(=O)(=O)c2ccc(C(F)(F)F)cc2F)cnc1C(=O)N1CC(C(F)(F)F)C1 [Compound 160, (3-amino-5-{[2-fluoro-4-(trifluoromethyl)phenyl]sulfonyl}pyridin-2-yl)[3-(trifluoromethyl)azetidin-1-yl]methanone]
97.3%	21.5 nM	45.8%	681 nM	Nc1cc(S(=O)(=O)c2ccc(C(F)(F)F)cc2F)cnc1C(=O)N1CC(OC(F)F)C1 [Compound 161, (3-amino-5-{[2-fluoro-4-(trifluoromethyl)phenyl]sulfonyl}pyridin-2-yl)[3-(difluoromethoxy)azetidin-1-yl]methanone]
101.8%	2.7 nM	68.0%	255 nM	CC(C)C1(O)CN(C(=O)c2ncc(S(=O)(=O)c3ccc(C(F)(F)F)cc3F)cc2N)C1 [Compound 162, (3-amino-5-{[2-fluoro-4-(trifluoromethyl)phenyl]sulfonyl}pyridin-2-yl)[3-hydroxy-3-(propan-2-yl)azetidin-1-yl]methanone]
97.0%	22.6 nM	71.9%	2300 nM	COCCC(C)(O)CNC(=O)c1ncc(S(=O)(=O)c2ccc(C(F)(F)F)cc2F)cc1N (stereo not shown) [Compound 163, 3-amino-5-{[2-fluoro-4-(trifluoromethyl)phenyl]sulfonyl}-N-(2-hydroxy-4-methoxy-2-methylbutyl)pyridine-2-carboxamide]
102.0%	8.2 nM	71.5%	683 nM	Nc1cc(S(=O)(=O)c2ccc(C(F)(F)F)cc2F)cnc1C(=O)N1CC(F)(F)C1 [Compound 164, (3-amino-5-{[2-fluoro-4-(trifluoromethyl)phenyl]sulfonyl}pyridin-2-yl)(3,3-difluoroazetidin-1-yl)methanone]
111.7%	17.5 nM	69.3%	661 nM	CC(C)COCC(O)CNC(=O)c1ncc(S(=O)(=O)c2ccc(C(F)(F)F)cc2)cc1N (stereo not shown) [Compound 166, 3-amino-N-[2-hydroxy-3-(2-methylpropoxy)propyl]-5-{[4-(trifluoromethyl)phenyl]sulfonyl}pyridine-2-carboxamide]
